Assay results: US6114537A, “Process for scavenging thiols” (Apotex Inc., priority 1997, dated 2000)

Columns and labels:
Cathepsin B = Cathepsin B (Rattus norvegicus, UniProt P00787); assay: Inhibition of Cathepsin B, enzyme assay and kinetic measurements; format: biochemical; settings: for kinact/KI: approximates kon, read-out: kabs /[inh] (cathepsin B); for inhibition at 200 µM: 200 μM [inhibitor]
Excerpt: (§1) Inhibition of Cathepsin B, Cathepsin L and Papain by 1,2,4-thiadiazoles and 1,2,4-thiadiazole[4,5-a]benzimidazole derivatives: Enzyme Assays and Kinetic Measurements
(§2) Conditions for the above experiments can be found in the following references: Menard R. et al., Biochemistry 1990, 29, 6706-6713; Fox T. et al., Biochemistry 1992, 31, 12571-12576; Cannona E. et al., Biochemistry 1996, 35, 8149-8157. A typical experiment consisted of choosing an inhibitor concentration such that maximum inhibition could be achieved in less than two hours, monitoring the complete progress curve (i.e. fluorescence vs time), and analyzing the data. The analysis yield two parameters: the % inhibition once steady state was re ached, and a rate constant which represents the rate at which this steady state is reached. Typically, the enzyme activity decreases with time until the maximum level of inhibition is reached (i.e. steady state) where the enzyme activity remains constant. Since significant levels of activity could still be detected at steady state (i.e. inhibition is not complete), the data was fitted to equation (1), which is normally used for slow-binding reversible inhibitors. [formula]
(§3) % inhibition=(1-v1 /vo).100 (2)
(§4) In this equation, [P] represents the concentration of product (obtained from the flourescene readings), kabs is the first order rate constant to reach steady state, vo is the initial rate which corresponds to the rate in the absence of the inhibitor, and vi is the rate of the inhibited enzyme at steady state. The % inhibition was obtained by using equation (2), where the rate measured in the absence of the inhibitor was used for vo. An example of a simple mechanism for such a process is given below: [formula] For this mechanism, the value of kabs determined experimentally would correspond to:
(§5) The value of kabs varies with inhibitor concentration. Often koff is much slower than kon [inh] and kabs /[inh] can be used to approximate kon. This approach is used in this study and the results are shown in below: […]

Cathepsin L = Cathepsin L (Homo sapiens, UniProt P07711); assay: Inhibition of Cathepsin L, enzyme assay and kinetic measurements; format: biochemical; settings: for kinact/KI: approximates kon, read-out: kabs /[inh] (cathepsin L); for inhibition at 5 µM: 5 μM [inhibitor]
Excerpt: as §1, §2, §3, §4, §5

Papain = molecular target: T1, Papain (Carica papaya, UniProt P00784); assay: Inhibition of Papain, enzyme assay and kinetic measurements; format: biochemical; settings: for kinact/KI: approximates kon, read-out: kabs /[inh] (papain); for inhibition at 1 µM: 1 μM [inhibitor]
T1 sequence (P00784 134-345): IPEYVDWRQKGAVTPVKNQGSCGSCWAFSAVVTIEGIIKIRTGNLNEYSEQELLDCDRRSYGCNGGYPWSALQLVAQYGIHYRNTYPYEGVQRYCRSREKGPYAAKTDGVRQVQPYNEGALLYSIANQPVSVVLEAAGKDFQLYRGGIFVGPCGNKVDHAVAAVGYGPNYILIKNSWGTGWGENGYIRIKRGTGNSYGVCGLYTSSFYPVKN
Excerpt: as §1, §2, §3, §4, §5

[1] = Reaction with benzyl mercaptan; format: physicochemical; settings: organic solvent such as methanol
Excerpt: The chemical reactivity of monocyclic 1,2,4-thiadiazole as thiol trapping agent depends on the substituent at the 3 and 5 position of the ring system.

[2] = steady state, 50 μM [inhibitor]
[3] = steady state, 200 μM [inhibitor] (printed 200 μm)

Cathepsin B, sequence (P00787 80-339): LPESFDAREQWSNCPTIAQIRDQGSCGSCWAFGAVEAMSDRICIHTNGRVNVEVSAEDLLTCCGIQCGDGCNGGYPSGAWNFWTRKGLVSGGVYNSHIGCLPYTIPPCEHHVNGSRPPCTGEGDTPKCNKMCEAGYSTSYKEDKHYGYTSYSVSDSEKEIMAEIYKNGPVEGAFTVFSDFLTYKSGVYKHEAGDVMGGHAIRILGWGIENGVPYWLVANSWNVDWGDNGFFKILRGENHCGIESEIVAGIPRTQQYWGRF
Cathepsin L, sequence (P07711 114-333): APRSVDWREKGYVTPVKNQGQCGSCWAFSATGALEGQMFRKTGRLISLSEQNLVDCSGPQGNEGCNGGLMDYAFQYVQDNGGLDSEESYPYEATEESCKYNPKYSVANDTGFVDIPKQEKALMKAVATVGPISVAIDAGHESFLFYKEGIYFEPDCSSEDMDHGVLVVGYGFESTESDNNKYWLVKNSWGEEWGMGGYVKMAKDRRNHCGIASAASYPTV

Structure (SMILES)	kinact/KI (Cathepsin B) [M⁻¹ s⁻¹]	kinact/KI (Cathepsin L) [M⁻¹ s⁻¹]	kinact/KI (Papain) [M⁻¹ s⁻¹]	reaction with benzyl mercaptan [1]	other results
COC(=O)[C@@H]1CCCN1c1nsc2nc3ccccc3n12 [1,2,4-thiadiazolo [4,5-a]benzimidazol-3-yl-L-proline methyl ester]	626	1050	356		inhibition at 10 µM (Cathepsin B; steady state, 10 μM [inhibitor], % sign not given): 88%; inhibition at 10 µM (Cathepsin L; steady state, 10 μM [inhibitor]): 99%; inhibition at 0.26 µM (Papain; steady state, 0.26 μM [inhibitor]): 97%
c1cncc(-c2nsc(-c3cccnc3)n2)c1 [3,5-di(3-pyridyl)-1,2,4-thiadiazole]				do not react with benzyl mercaptan	
c1ccc2c(c1)nc1snc(OCCN3CCOCC3)n12 [3-[2-(N-morpholino)ethoxy]-1,2,4-thiadiazolo[4,5-a]benzimidazole]	107	356	5560		inhibition at 50 µM (Cathepsin B; [2]): 91%; inhibition at 25 µM (Cathepsin L; steady state, 25 μM [inhibitor]): 99%; inhibition at 0.66 µM (Papain; steady state, 0.66 μM [inhibitor]): 99.6%
O=C(c1ccccn1)c1nsc2nc3ccccc3n12 [3-[oxo(2-pyridyl)methyl]-1,2,4-thiadiazolo [4,5-a]benzimidazole]	15	68	2480		inhibition at 200 µM (Cathepsin B; steady state): 58%; inhibition at 200 µM (Cathepsin L; [3]): 99%; inhibition at 1 µM (Papain; steady state): 79%
COc1nsc(N)n1 [3-methoxy-5-amino-1,2,4-thiadiazoles, 5-amino-3-methoxy-1,2,4-thiadiazole]				reacted with benzyl mercaptan	
Cc1nsc(NCc2ccccc2)n1 [3-methyl-5-benzylamino-1,2,4-thiadiazole]				do not react with benzyl mercaptan	
Cc1nsc(N(Cc2ccccc2)Cc2ccccc2)n1 [3-methyl-5-dibenzylamino-1,2,4-thiadiazole]				do not react with benzyl mercaptan	
COc1nsc(NC(=O)N[C@@H](CC(C)C)C(=O)NCCC(C)C)n1 [Example T11AA]	1060	3480	3900		inhibition at 5 µM (Cathepsin B; steady state, 5 μM [inhibitor]): 56%; inhibition at 5 µM (Cathepsin L; steady state): 99%; inhibition at 1 µM (Papain; steady state): 97%
O=C(O)c1nsc2nc3ccccc3n12 [sodium 3-carboxylato-1,2,4-thiadiazolo[4,5-albenzimidazole]	34	184	131		inhibition at 200 µM (Cathepsin B; steady state): 85%; inhibition at 50 µM (Cathepsin L; [2]): 98%; inhibition at 200 µM (Papain; [3]): 99.6%
CC(C)CCNC(=O)[C@H](CC(C)C)NC(=O)c1nsc2nc3ccccc3n12 [{1,2,4-thiadiazolo[4,5-a]benzimidazol-3-yl}-carbonyl-L-leucyl isoamylamide]		307	500		inhibition at 5 µM (Cathepsin L; steady state): 93%; inhibition at 5 µM (Papain; steady state, 5 μM [inhibitor]): 95%
